Laboratory results as given in patent publication US20240423207A1, “PICOLINAMIDE COMPOUNDS WITH FUNGICIDAL ACTIVITY” (CORTEVA AGRISCIENCE LLC, priority 2014, published 2024).
Like-named read-outs stand apart in the source and are kept apart here.

Key:
Format in all cases: in vivo
[1] = tested on: Mycosphaerella graminicola; Anamorph: Septoria tritici; assay: Leaf Blotch of Wheat (SEPTTR) fungicidal activity on wheat seedlings; settings: Zymoseptoria tritici, Low Volume, 121.5 g/H
Summary of the method: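 Compounds in acetone were diluted with nine volumes of water containing 110 ppm Triton X-100, or as EC formulations with 0.1% Trycol 5941 for track spray. They were sprayed on first-leaf Yuma wheat seedlings inoculated with S. tritici before or after treatment. Plants spent 1 day dark and 2–3 days lit at 100% RH, 20 °C. Severity (0–100%) was scored once untreated plants were fully diseased; control was computed relative to untreated plants.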

Rhyncosporium secalis = assay: Barley Scald (RHYNSE) fungicidal activity on barley seedlings; settings: Hordeum vulgare, 24 h, 1 Day Protectant, read-out: RHYNSE 1 DP disease control
Method: Technical grades of materials were dissolved in acetone, which were then mixed with nine volumes of water (H2O) containing 110 ppm Triton X-100. The fungicide solutions were applied onto wheat seedlings using an automated booth sprayer to run-off. All sprayed plants were allowed to air dry prior to further handling. All fungicides were evaluated using the aforementioned method for their activity vs. all target diseases, unless stated otherwise. Wheat leaf blotch and brown rust activity were also evaluated using track spray applications, in which case the fungicides were formulated as EC formulations, containing 0.1% Trycol 5941 in the spray solutions. Wheat plants (variety Yuma) were grown from seed in a greenhouse in 50% mineral soil/50% soil-less Metro mix until the first leaf was fully emerged, with 7-10 seedlings per pot. These plants were inoculated with an aqueous spore suspension of Septoria tritici either prior to or after fungicide treatments. After inoculation the plants were kept in 100% relative humidity (one day in a dark dew chamber followed by two to three days in a lighted dew chamber at 20° C.) to permit spores to germinate and infect the leaf. The plants were then transferred to a greenhouse set at 20° C. for disease to develop. When disease symptoms were fully expressed on the 1st leaves of untreated plants, infection levels were assessed on a scale of 0 to 100 percent disease severity. Percent disease control was calculated using the ratio of disease severity on treated plants relative to untreated plants. Example G: Evaluation of Fungicidal Activity: Barley Scald (Rhyncosporium secalis; Bayer code […]) Barley seedlings (variety Harrington) were propagated in soil-less Metro mix, with each pot having 8 to 12 plants, and used in the test when the first leaf was fully emerged. Test plants were inoculated by an aqueous spore suspension of Rhyncosporium secalis 24 h after fungicide treatments. After inoculation the plants were kept in a dew room at 20° C. with 100% relative humidity for 48 h. The plants were then transferred to a greenhouse set at 20° C. for disease to develop. Fungicide formulation, application and disease assessment on the sprayed leaves followed the procedures as described in the Example A.

[2] = tested on: Magnaporthe grisea; Anamorph: Pyricularia oryzae; assay: whole plant or invertebrate; settings: 24 h, read-out: PYRIOR 1 DP disease control
[3] = 24 h, 1 Day Protectant, read-out: SEPTTR 1DP disease control
[4] = 72 h, 3 Day Curative, read-out: SEPTTR 3DC disease control

COc1ccnc(C(=O)N[C@@H](C)C(=O)O[C@@H](C)C(c2ccc(F)cc2)c2ccc(F)cc2)c1OC(C)=O [Cmpd 145]
> 80%: pest or weed control at 121.5 g/ha [1, 3] | pest or weed control at 121.5 g/ha [1, 4] | pest or weed control at 100 ppm (Rhyncosporium secalis) | pest or weed control at 100 ppm [2]

COc1ccnc(C(=O)N[C@@H](C)C(=O)O[C@@H](C)C(c2ccc(F)cc2F)c2ccc(F)cc2F)c1OCOC(C)=O [Cmpd 148]
> 80%: pest or weed control at 121.5 g/ha [1, 3] | pest or weed control at 121.5 g/ha [1, 4] | pest or weed control at 100 ppm (Rhyncosporium secalis) | pest or weed control at 100 ppm [2]

COc1ccnc(C(=O)N[C@@H](C)C(=O)O[C@@H](C)C(c2ccccc2)c2ccccc2)c1OC(=O)C(C)C [Cmpd 140]
> 80%: pest or weed control at 121.5 g/ha [1, 3] | pest or weed control at 121.5 g/ha [1, 4] | pest or weed control at 100 ppm [2]

COc1ccnc(C(=O)N[C@@H](C)C(=O)O[C@@H](C)C(c2ccc(F)cc2)c2ccc(F)cc2)c1OCOC(C)=O [Cmpd 146]
> 80%: pest or weed control at 121.5 g/ha [1, 3] | pest or weed control at 121.5 g/ha [1, 4] | pest or weed control at 100 ppm (Rhyncosporium secalis) | pest or weed control at 100 ppm [2]

COc1ccnc(C(=O)N[C@@H](C)C(=O)O[C@@H](C)C(c2ccccc2)c2ccccc2)c1OC(C)=O [Cmpd 139, (S)-(S)-1,1-diphenylpropan-2-yl 2-(3-acetoxy-4-methoxypicolinamido)propanoate]
> 80%: pest or weed control at 121.5 g/ha [1, 3] | pest or weed control at 121.5 g/ha [1, 4] | pest or weed control at 100 ppm (Rhyncosporium secalis) | pest or weed control at 100 ppm [2]

COc1ccnc(C(=O)N[C@@H](C)C(=O)O[C@@H](C)C(c2ccccc2)c2ccccc2)c1OCOC(=O)C(C)C [Cmpd 142, (S)-(S)-1,1-diphenylpropan-2-yl 2-(3-((isobutyryloxy)methoxy)-4-methoxypicolinamido)propanoate]
> 80%: pest or weed control at 121.5 g/ha [1, 3] | pest or weed control at 121.5 g/ha [1, 4] | pest or weed control at 100 ppm (Rhyncosporium secalis) | pest or weed control at 100 ppm [2]

COc1ccnc(C(=O)N[C@@H](C)C(=O)O[C@@H](C)C(c2ccccc2)c2ccccc2)c1OCOC(C)=O [Cmpd 141, (S)-(S)-1,1-diphenylpropan-2-yl 2-(3-(acetoxymethoxy)-4-methoxypicolinamido)propanoate]
> 80%: pest or weed control at 121.5 g/ha [1, 3] | pest or weed control at 121.5 g/ha [1, 4] | pest or weed control at 100 ppm (Rhyncosporium secalis) | pest or weed control at 100 ppm [2]

COc1ccnc(C(=O)N[C@@H](C)C(=O)O[C@@H](C)C(c2ccc(Cl)cc2)c2ccc(Cl)cc2)c1OC(C)=O [Cmpd 174]
> 80%: pest or weed control at 121.5 g/ha [1, 3] | pest or weed control at 121.5 g/ha [1, 4] | pest or weed control at 100 ppm (Rhyncosporium secalis) | pest or weed control at 100 ppm [2]

COc1ccnc(C(=O)N[C@@H](C)C(=O)O[C@@H](C)C(c2ccc(F)cc2F)c2ccc(F)cc2F)c1OC(C)=O [Cmpd 150]
> 80%: pest or weed control at 121.5 g/ha [1, 3] | pest or weed control at 121.5 g/ha [1, 4] | pest or weed control at 100 ppm (Rhyncosporium secalis) | pest or weed control at 100 ppm [2]

COc1ccnc(C(=O)N[C@@H](C)C(=O)O[C@@H](C)C(c2ccc(Cl)cc2)c2ccc(Cl)cc2)c1OCOC(C)=O [Cmpd 176]
> 80%: pest or weed control at 121.5 g/ha [1, 3] | pest or weed control at 121.5 g/ha [1, 4] | pest or weed control at 100 ppm (Rhyncosporium secalis) | pest or weed control at 100 ppm [2]
